We go through twelve compounds from paper PMC8831383, “Visualization-Based Discovery of Vanin-1 Inhibitors for Colitis” (Frontiers in Chemistry, 2022).

Data set [1] has as its target T1, human recombinant VNN1 enzyme (Homo sapiens, UniProt O95497).
T1 sequence (O95497 22-513): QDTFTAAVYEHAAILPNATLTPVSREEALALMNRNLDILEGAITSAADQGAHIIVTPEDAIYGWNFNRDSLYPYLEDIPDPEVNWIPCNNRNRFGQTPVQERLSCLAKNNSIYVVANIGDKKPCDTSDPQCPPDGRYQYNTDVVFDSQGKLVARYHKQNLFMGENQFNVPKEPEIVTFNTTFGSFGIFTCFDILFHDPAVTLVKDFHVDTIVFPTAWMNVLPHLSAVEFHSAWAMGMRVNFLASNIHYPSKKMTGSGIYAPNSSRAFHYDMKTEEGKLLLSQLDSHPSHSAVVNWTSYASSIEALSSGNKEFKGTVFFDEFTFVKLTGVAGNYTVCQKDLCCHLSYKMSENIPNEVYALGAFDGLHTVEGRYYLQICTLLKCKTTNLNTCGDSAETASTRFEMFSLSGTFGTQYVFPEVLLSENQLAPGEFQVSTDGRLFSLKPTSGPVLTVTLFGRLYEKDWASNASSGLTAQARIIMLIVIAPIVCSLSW
Put plainly: Inhibitory activity against human recombinant VNN1 enzyme in vitro with fluorescent probe PA-AFC. The conditions noted are these: human recombinant VNN1 30 ng/ml, probe PA-AFC 20 μM, 37°C, 30 min + 30 min. The format is biochemical. The protocol: This study was used human recombinant VNN1 enzyme and fluorescent probe PA-AFC to determine the IC50 value of inhibitors.
Dilute the lead compound and each inhibitor to be tested with buffer to, for example, 400, 200, 100, 50, 25, 12.50, 6.25, 3.13, and 1.56 μM, 781 nM, 391 nM The gradient concentration of the solution. Prepare the human recombinant VNN1 enzyme solution at a concentration of 30 ng/ml. Prepare the fluorescent probe PA-AFC solution with a concentration of 20 μM.
Add 50 μl of gradient concentration of the inhibitor to be tested to each well of the black 96-well plate, and then continue to add 50 μl of the newly prepared human recombinant VNN1 enzyme solution to each well. Among them, the control group and the blank group were replaced with the same volume of buffer. After the solution is mixed, place the black 96-well plate on a shaker at 37°C for 30 min. Continue to add 100 μl of the prepared fluorescent probe solution to each well of the black 96-well plate. After mixing, place the black 96-well plate on a shaker at 37°C and incubate for 30 min. Take the black 96-well plate out of the shaker and place it in a POLARstar Omega microplate reader. Use a 420 nm filter for the excitation light and a 510 nm filter for the emission light. Record the fluorescence intensity data at 510 nm. Through GraphpadPrism mapping, the IC50 value of each inhibitor to be tested was obtained.

In data set [2] the target is T2, Vanin-1 enzyme (Homo sapiens, UniProt O95497).
T2 construct: endogenous in cells; host or cells: ES-2-Fluc (human ovarian cancer cells expressing firefly luciferase)
T2 sequence (O95497 22-513): T1 sequence (O95497 22-513)
The data set can be described thus: Inhibition of Vanin-1 enzyme at the cellular level in ES-2-Fluc cells with bioluminescent probe PA-AL. The format is cell-based. The settings on record: 30 min incubation with inhibitor, probe PA-AL 20 μM. The procedure: This study explores the inhibition of Vanin-1 enzyme at the cellular level using firefly luciferase labeled human ovarian cancer cells (ES-2-Fluc) and the bioluminescent probe PA-AL.
Take a black 96-well plate with a transparent bottom, dilute the cells to a cell suspension with a concentration of 4 × 10^5 cells/ml, add 100 μl to each well to reach about 40,000 cells in each well, and incubate at 37°C for 12 h. Dilute the lead compound and each inhibitor to be tested to the final concentration of 200, 100, 50, 25, 12.50, 6.25, 3.13, 1.56, and 0.78 μM, and add 100 μl to each well. After mixing, transfer to a shaker at 37°C and incubate the cells with the inhibitor for 30 min. Prepare bioluminescent probe PA-AL solution with a concentration of 20 μM. Immediately after adding, put it into in vivo imaging for bioluminescence imaging. The bioluminescence intensity value of each hole was analyzed by the software of the living body imager, and the exposure time was 1 min. Graphpad Prism software is used to draw the IC50 value of each inhibitor to be tested.

Data set [3] concerns TNBS-induced mouse colitis model. The data set can be described thus: TNBS-induced mouse colitis model. The settings on record: TNBS colitis mice; lead compound 25 mg/kg, compound a 50 mg/kg once a day, 8 days; TNBS model group 10.0 ± 1.63. The class given is in vivo, C57BL/6J mice. The procedure:
The dose of TNBS used in this experiment is 2.0 mg/50% alcohol enema, each with a volume of 100 μl. The preparation method is 40 μl of 5% TNBS (w/v) aqueous solution, 50 μl of absolute ethanol, and 10 μl of distilled water. well mixed.
The study bred C57BL/6J mice adaptively with ordinary diet for 1 week, in an ordinary clean environment, normal light and free drinking water. The mice were randomly divided into 3 groups and numbered, fasted without water for 24 h before modeling. After weighing the mouse, use isoflurane anesthesia, insert a rubber hose with a diameter of about 0.2–0.3 cm into the mouse 3.5 cm from the anus, and slowly push 100 μl of the 2.0 mg TNBS/50% alcohol mixture solution through the hose Enter the colon, slowly pull out the plastic tube after the administration, pinch the anus with your hand, and invert it for 1 min, so that the model agent can fully penetrate the intestinal cavity of the mouse. Then put them back into the breeding cage to keep lying down, wait for the mice to wake up naturally, and create a model together. The mice in the control group were given 200 μl of lead compound solution (25 mg/kg) once a day, the mice in the experimental group were given 200 μl of compound 1c solution (50 mg/kg) once a day, and the mice in the model group were given physiological salt once a day 200 μl of aqueous solution. […]

The target in data set [4] is T3, vanin-1 enzyme (Mus musculus, UniProt Q9Z0K8).
T3 construct: from tissue; host or cells: whole living FVB-luc+ transgenic mice
T3 sequence (Q9Z0K8 24-512): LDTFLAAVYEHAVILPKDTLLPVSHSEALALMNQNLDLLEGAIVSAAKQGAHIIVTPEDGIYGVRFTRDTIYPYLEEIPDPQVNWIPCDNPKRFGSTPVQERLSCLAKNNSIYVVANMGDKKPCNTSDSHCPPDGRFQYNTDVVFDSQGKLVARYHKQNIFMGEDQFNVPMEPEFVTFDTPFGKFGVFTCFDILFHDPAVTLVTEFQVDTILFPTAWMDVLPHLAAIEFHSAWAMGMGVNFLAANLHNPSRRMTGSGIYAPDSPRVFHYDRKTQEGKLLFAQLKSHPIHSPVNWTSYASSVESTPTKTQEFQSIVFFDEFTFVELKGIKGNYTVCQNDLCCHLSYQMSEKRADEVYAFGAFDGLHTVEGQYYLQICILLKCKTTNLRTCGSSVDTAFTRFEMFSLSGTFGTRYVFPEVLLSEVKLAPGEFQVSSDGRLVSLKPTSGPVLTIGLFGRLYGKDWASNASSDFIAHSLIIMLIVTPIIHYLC
Put plainly: Inhibition of vanin-1 in transgenic mice in vivo, bioluminescence imaging with probe PA-AL. Also on record: species or system FVB-luc + mice. The conditions noted are these: gavage, lead compound 25 mg/kg, compound a 50 mg/kg, PA-AL i.p. 1.5 h later. The procedure: We divided FVB-luc + mice into three groups: • (1) Control group: gavage lead compound, the dose is 25 mg/kg, the gavage volume is 200 μl; • (2) Experimental group: gavage compound a, the dose is 50 mg/kg, the gavage volume is 200 μl; • (3) Blank group: Administer normal saline, the volume of intragastric administration is 200 μl.
After intragastric administration, mice were fed routinely for 1.5 h, and then mice in each group were anesthetized with 4% chloral hydrate solution and injected intraperitoneally with physiological saline solution of bioluminescent probe PA-AL (1 mM, 200 μl). In 55 min, the bioluminescence imaging of the whole body of each group of mice was measured every 5 min, and then the bioluminescence intensity was obtained by analyzing the images with the software of the in vivo imager.

A further data set deals with vanin-1. Also on record: method as in Jansen et al., 2013. The settings on record: ref Jansen et al., 2013; cited from earlier work.

As for `O=C(c1ccc(NCc2cccnc2)cc1)N1CC2(CCOCC2)C1` [b, (4-((pyridin-3-ylmethyl)amino)phenyl)(7-oxa-2-azaspiro[3.5]nonan-2-yl)methanone], the melting point (in general, the temperature of the solid-liquid transition) is 126.1 to 126.5 °C. Besides, the IC50 (as a rule, the concentration needed to halve the response being measured) in data set [1] worked out at 26.2 ± 0.56 µM. The 50% inhibitory concentration (IC50) against Vanin-1 enzyme [2] came out at 12.3 ± 1.28 µM.
For `COc1cc(C(=O)N2CC3(CCOCC3)C2)ccc1NCc1cccnc1` [j, (3-methoxy-4-((pyridin-3-ylmethyl)amino)phenyl)(7-oxa-2-azaspiro[3.5]nonan-2-yl)methanone], the melting point was in the range of 136.4 to 136.9 °C. The concentration for half-maximal inhibition (IC50) in data set [1] stood at 138.3 ± 0.68 µM. The compound further registered an IC50 against Vanin-1 enzyme [2] of 80.6 ± 6.21 µM.
In the case of `O=C(c1ccc(NCc2cnccn2)cc1)N1CCC2(CCOCC2)C1` [c, (4-((pyrazin-2-ylmethyl)amino)phenyl)(8-oxa-2-azaspiro[4.5]decan-2-yl)methanone], the melting point lay in the range of 173.4 to 173.8 °C. Further, in data set [1], the IC50 stood at 30.33 ± 0.11 µM. Also, it took 16.5 ± 1.92 µM to reach half-maximal inhibition against Vanin-1 enzyme [2] (IC50).
The corresponding values for `O=C(c1ccc(NCc2cccnc2)cn1)N1CCC2(CCOCC2)C1` [e, (5-((pyridin-3-ylmethyl)amino)pyridin-2-yl)(8-oxa-2-azaspiro[4.5]decan-2-yl)methanone] are 176.5 to 177.2 °C, 43.7 ± 1.07 µM and 35.8 ± 2.15 µM.
`COc1cc(C(=O)N2CCC3(CCOCC3)C2)ccc1NCc1cccnc1` [i, (3-methoxy-4-((pyridin-3-ylmethyl)amino)phenyl)(8-oxa-2-azaspiro[4.5]decan-2-yl)methanone]: the melting point fell in the range of 128.2 to 129.6 °C. In addition, the half-maximal inhibitory concentration (IC50) in data set [1] was found to be 115 ± 13 µM. This compound came in with an IC50 against Vanin-1 enzyme [2] of 93.7 ± 8.08 µM.
The compound `O=C(c1ccc(NCc2cccnc2)cn1)N1CC2(CCOCC2)C1` [f, (5-((pyridin-3-ylmethyl)amino)pyridin-2-yl)(7-oxa-2-azaspiro[3.5]nonan-2-yl)methanone] yielded a melting point of 202 to 202.3 °C. The 50% inhibitory concentration (IC50) in data set [1] was determined as 46.2 ± 1.27 µM. At Vanin-1 enzyme [2], this compound gave an IC50 of 22 ± 2.66 µM.
The compound `O=C(c1ccc(NCc2cccnc2)cc1)N1CCC2(CCOCC2)C1` [a, (4-((pyridin-3-ylmethyl)amino)phenyl)(8-oxa-2-azaspiro[4.5]decan-2-yl)methanone] gave a melting point of 113.2 to 114.7 °C. Besides, in data set [1], the IC50 is 20.2 ± 1.32 µM. Further, the DAI score in data set [3] came to 6.7 ± 0.95. Also, the IC50 against Vanin-1 enzyme [2] is 9.08 ± 0.57 µM. For the same compound, the “bioluminescence intensity at the peak relative to the blank group” value at vanin-1 enzyme [4] (30 min after probe injection) is “about one-half”. Also, the “bioluminescence intensity of transgenic mice at the peak” value at vanin-1 enzyme [4] (about 30 min after probe injection) is “significantly reduced”.
Regarding `O=C(c1ccc(NCc2cnccn2)cn1)N1CCC2(CCOCC2)C1` [g, (5-((pyrazin-2-ylmethyl)amino)pyridin-2-yl)(8-oxa-2-azaspiro[4.5]decan-2-yl)methanone], the melting point lay in the range of 123.6 to 124.1 °C. The IC50 in data set [1] was found to be 51.5 ± 1.65 µM. This compound showed a half-maximal inhibitory concentration (IC50) on Vanin-1 enzyme [2] of 39.8 ± 0.91 µM.
In turn, `CC(C)(CO)C(O)C(=O)NCCC(=O)Nc1ccc2c(C(F)(F)F)cc(=O)oc2c1` (centres unmarked) displayed a melting point of 92.4 to 93.6 °C.
Regarding `O=C(c1ccc(NCc2cnccn2)cc1)N1CC2(CCOCC2)C1` [d, (4-((pyrazin-2-ylmethyl)amino)phenyl)(7-oxa-2-azaspiro[3.5]nonan-2-yl)methanone], the melting point was 191.6 to 191.9 °C. Besides, the IC50 in data set [1] came to 28.5 ± 0.35 µM. Besides, the IC50 against Vanin-1 enzyme [2] amounted to 15.3 ± 0.75 µM.
With `CC(C)(CO)[C@@H](O)C(=O)NCCC(=O)Cc1ccccc1` [RR6], in the data set with vanin-1, the IC50 was 0.54 µM.
Compound `O=C(c1ccc(NCc2cnccn2)cn1)N1CC2(CCOCC2)C1` [h, (5-((pyrazin-2-ylmethyl)amino)pyridin-2-yl)(7-oxa-2-azaspiro[3.5]nonan-2-yl)methanone] gave a melting point of 104.6 to 105 °C. In data set [1], the half-maximal inhibitory concentration (IC50) came to 84.6 ± 2.5 µM. For the same compound, 59.6 ± 5.27 µM corresponded to half-maximal inhibition against Vanin-1 enzyme [2] (IC50).
